Values after ≈ are worked out from the molar mass of the structure shown.
Key:
[1] = hydrolysis equilibrium / dissociation of compound I to free chlorine; assay type: physicochemical
[2] = tested on: Staphylococcus aureus ATCC 6538; assay: sandwich test, wet wipes; assay type: cell-based; conditions: contact time 1 min, inoculum 6.35
Method: (§1) In the first test, CVS brand commercial wet wipes were first dried at 45° C. for 1 hour before impregnation with solutions of compound I. Different concentrations (wt %) of compound I were prepared in ethyl alcohol, and the wipes were soaked in the solutions for 5 minutes. After soaking in the solutions, each wipe was mounted between two filter papers, and a weight of 290 grams was placed uniformly over the stack. At the end of a 30 second period, the wet wipes were placed in closed vials to prevent further loss of solvent.
(§2) For antibacterial testing, CVS brand commercial wipes were used as received as controls and wipes impregnated with compound I at a concentration of 1.0 wt % in ethyl alcohol were prepared as described above. […] After the plates were incubated at 37° C. for 24 hours, viable bacterial colonies were counted for the biocidal efficacy analysis.

[3] = tested on: Escherichia coli O157:H7 ATCC 43895; assay: sandwich test, wet wipes; assay type: cell-based; conditions: contact time 1 min, inoculum 6.50
Method: as §1, §2

[4] = storage (shelf-life) stability of oxidative chlorine on impregnated fabrics, iodometric/thiosulfate titration; assay type: physicochemical; conditions: for Chlorine loading, dark storage / Chlorine loading, fluorescent light: 22 g/m^2 fabric, 22° C.
Method: A modified iodometric/thiosulfate titration procedure was used to determine the active chlorine content on the fabrics impregnated with compound I (see, for example, Worley et al., “Novel N-halamine Siloxane Monomers and Polymers for Preparing Biocidal Coatings,” Surf Coat. Int., Part B, 2005; 88:93, herein incorporated by reference in its entirety). Cl^+% was calculated by the equation given below, where Cl^+% is the weight percent of the oxidative chlorine, N and V are
[formula] the normality (equiv/L) and volume (L) of the Na2S2O3 (titrant), respectively, and W is the weight of the polypropylene fabric in grams.
Storage or shelf-life stability of the impregnated 22 g/m^2 fabrics was evaluated in the instant example. Fabric samples were stored in a cabinet (e.g., a dark environment) without exposure to fluorescent light and on the laboratory bench (e.g., under fluorescent light) at room temperature. The stability of the chlorine content over time was measured for 24 weeks. The stabilities of the fabrics impregnated with compound I with a basis weight of 22 g/m^2 were determined at 22° C. by measuring the amount of remaining chlorine on the fabrics by using the standard iodometric/thiosulfate titration procedure.

[5] = tested on: Pseudomonas aeruginosa ATCC 27853; assay: sandwich test, gauze pads (wound dressing); assay type: cell-based; conditions: chlorine loading 0.47 ± 0.01 wt %, inoculum 6.12 logs
Method: (§3) Compound I at a concentration of 1% by weight was dissolved in ethyl alcohol at room temperature. Non-stick gauze pads sized 20.3×7.6 cm (8×3 inch) obtained from Curad® were soaked in the solution for 10 minutes. The gauze pads were then passed through a laboratory wringer (Birch Brothers Southern, Waxhaw, N.C., U.S.A.) at low pressure settings. This procedure was followed by drying the samples at room temperature overnight. The titrated oxidative chlorine loading of the gauze pads was 0.47±0.01 wt %.
(§4) Gauze pads impregnated with compound I and non-impregnated sterile gauze pads (used as received as controls) were challenged with Staphylococcus aureus (S. aureus, ATCC 6538), Escherichia coli(E. coli O157:H7, ATCC 43895), and Pseudomonas aeruginosa (P. aeruginosa, ATCC 27853). The bacteria were suspended in 100 μM phosphate buffer (pH 7) to produce a suspension of known population (colony forming units, CFU/mL). Then, an aliquot of 25 μL of this suspension was placed in the center of a 2.54×2.54 cm^2 gauze swatch, and a second identical swatch was placed on top. Both swatches were covered by a sterile weight to ensure sufficient contact with the bacteria. After predetermined contact times, samples were quenched by 5.0 mL of sterile 0.02 N sodium thiosulfate solution to neutralize the oxidative chlorine and thus terminate the disinfection action. Samples were vortexed for 2 minutes, and then serial dilutions were prepared using pH 7, 100 μM phosphate buffer and plated on Trypticase soy agar plates. After the plates were incubated at 37° C. for 24 hours, viable bacterial colonies were counted for the biocidal efficacy analysis.

[6] = tested on: Staphylococcus aureus ATCC 6538; assay: sandwich test, gauze pads (wound dressing); assay type: cell-based; conditions: chlorine loading 0.47 ± 0.01 wt %, inoculum 6.00 logs
Method: as §3, §4

[7] = tested on: Escherichia coli O157:H7 ATCC 43895; assay: sandwich test, gauze pads (wound dressing); assay type: cell-based; conditions: chlorine loading 0.47 ± 0.01 wt %, inoculum 5.86 logs
Method: as §3, §4

solubility = assay type: physicochemical; conditions: 22° C.
Text: The precursor 2,2,5,5-tetramethyl-4-imidazolidinone can be prepared according to the method outlined in Tsao or in Worley based upon oxidation of the corresponding thione with hydrogen peroxide in basic solution. The thione can be prepared by the method of Christian (see “4-imidazolidinethiones,” J. Org. Chem., 1957; 22:396), which entails reaction of sodium cyanide, ammonium chloride, ammonium sulfide, and acetone in aqueous solution. […] Compound I in its pure form contains 20.1 percent by weight oxidative chlorine. […] However, the compound is much more soluble in ethyl or isopropyl alcohol, such that a solution greater than 5000 mg/L oxidative chlorine can easily be obtained.

[8] = contact time 1 min, listed as compound I

## CC1(C)NC(=O)C(C)(C)N1Cl [Compound I, 1-chloro-2,2,5,5-tetramethyl-4-imidazolidinone]
[1]
  dissociation constant (chlorine release): lower than 10^−11
[1]; ambient temperature
  hydrolysis equilibrium constant to produce 2,2,5,5-tetramethyl-4-imidazolidinone and free chlorine (HOCl): lower than 10^−11
[2]
  Bacterial Reduction (logs) S. aureus: 6.35 logs
[3]
  Bacterial Reduction (logs) E. coli O157:H7: 6.5 logs
[4]; 2 weeks
  Chlorine loading, dark storage: 0.37 wt % Cl^+
  Chlorine loading, fluorescent light: 0.05 wt % Cl^+
[4]; 3 weeks
  Chlorine loading, dark storage: 0.40 wt % Cl^+
  Chlorine loading, fluorescent light: 0 wt % Cl^+
[4]; 5 weeks
  Chlorine loading, dark storage: 0.37 wt % Cl^+
  Chlorine loading, fluorescent light: 0 wt % Cl^+
[4]; 8 weeks
  Chlorine loading, dark storage: 0.40 wt % Cl^+
  Chlorine loading, fluorescent light: 0 wt % Cl^+
[4]; 12 weeks
  Chlorine loading, dark storage: 0.42 wt % Cl^+
  Chlorine loading, fluorescent light: 0 wt % Cl^+
[4]; 24 weeks
  Chlorine loading, dark storage: 0.41 wt % Cl^+
  Chlorine loading, fluorescent light: 0 wt % Cl^+
[4]; Initial
  Chlorine loading, dark storage: 0.36 wt % Cl^+
  Chlorine loading, fluorescent light: 0.40 wt % Cl^+
[4]; fabrics exposed to fluorescent light, after 3 weeks of exposure
  chlorine loss on storage: the remaining chlorine was lost
[4]; fabrics exposed to fluorescent light, within a 2 week time period
  chlorine loss on storage: Almost all of the initial chlorine loading was lost
[4]; fabrics stored in dark environmental conditions, 6 month time period
  chlorine loss on storage: no significant chlorine loss
[5]; contact time 1 min
  Bacterial Reduction (log) P. aeruginosa: 6.12 log
[5]; [8]
  Bacterial Reduction (log) P. aeruginosa: about 6 log
[5]; contact time 5 min
  Bacterial Reduction (log) P. aeruginosa: 6.12 log
[5]; contact time 10 min
  Bacterial Reduction (log) P. aeruginosa: 6.12 log
[5]; contact time 30 min
  Bacterial Reduction (log) P. aeruginosa: 6.12 log
[6]; contact time 1 min
  Bacterial reduction (log) S. aureus: 3.07 log
[6]; contact time 5 min
  Bacterial reduction (log) S. aureus: 6.00 log
[6]; contact time 10 min
  Bacterial reduction (log) S. aureus: 6.00 log
[6]; contact time 30 min
  Bacterial reduction (log) S. aureus: 6.00 log
[7]; contact time 1 min
  Bacterial Reduction (log) E. coli O157:H7: 5.86 log
[7]; [8]
  Bacterial Reduction (log) E. coli O157:H7: about 6 log
[7]; contact time 5 min
  Bacterial Reduction (log) E. coli O157:H7: 5.86 log
[7]; contact time 10 min
  Bacterial Reduction (log) E. coli O157:H7: 5.86 log
[7]; contact time 30 min
  Bacterial Reduction (log) E. coli O157:H7: 5.86 log
solubility
  solubility in water: 1930 µg/mL (≈ 10.9 mM)
solubility; water
  weight percent of oxidative chlorine under saturated conditions: 0.0388 weight percent

— patent publication US10178866B2, “N-halamine containing fibrous compositions and uses thereof” (priority 2014, dated 2019)
